# Experimental data published in patent US8691991B2 (priority 2004, dated 2014).
# Test system: HIV-1 (strain IIIB)
# Experiment: MT4 cell assay: antiviral HIV activity (HIV-induced cytopathic effect)
# Type: cell-based
# Conditions: Human immunodeficiency virus 1, IIIB, control and standard, propidium iodide readout, tested 0.01 to 1 μM in every assay, read-out: expected range of IC50 values
# Method: Antiviral HIV activity and compound-induced cytotoxicity were measured in parallel by means of a propidium iodide based procedure in the human T-cell lymphotropic virus transformed cell line MT4. Aliquots of the test compounds were serially diluted in medium (RPMI 1640, 10% fetal calf serum (FCS), and gentamycin) in 96-well plates (Costar 3598) using a Cetus Pro/Pette. Exponentially growing MT4 cells were harvested and centrifuged at 1000 rpm for 10 min in a Jouan centrifuge (model CR 4 12). Cell pellets were resuspended in fresh medium (RPMI 1640, 20% FCS, 20% IL-2, and gentamycin) to a density of 5×10^5 cells/ml. Cell aliquots were infected by the addition of HIV-1 (strain IIIB) diluted to give a viral multiplicity of infection of 100×TCID50. […]
# For propidium iodide readout, 27 μl of 5% Nonidet-40 was added to each well of the incubation plate. […] The plates were analyzed in an automated assay instrument (Screen Machine, Idexx Laboratories). […]
# For MTS readout, 20 μl CellTiter 96 AQ One Solution reagent (Promega #G3582) was added to each well. At 75 minutes following the addition of MTS reagent, absorbance was read at […] using a Tecan Sunrise 96-well plate reader. […]
# For each assay plate, the results (relative fluorescence units, rfU, or OD values) of wells containing uninfected cells or infected cells with no compound were averaged, respectively. […]
row,SMILES,IC50 [nM]
1,Cc1cn([C@H]2C[C@H](N=[N+]=[N-])[C@@H](CO)O2)c(=O)[nH]c1=O [3′-azido-3′-deoxythymidine],40 to 120

# Test system: Pseudotyped HIV vector
# Experiment: Pseudotyped HIV vector expressing luciferase reporter assay
# Type: cell-based
# Conditions: Human immunodeficiency virus 1
# Method: Pseudotyped HIV Vector Expressing Luciferase Reporter Assay
# Expression of luciferase reporter following viral integration was performed essentially as described in Jármy, G. et al., J. Medical Virology, 64:223-231, 2001.
row,SMILES,IC50 [nM]
1,"Cn1c(=O)c(C(=O)NCCN2CCOCC2)c(O)c2ncc(Cc3ccc(F)cc3)cc21 [Example 96, 7-[(4-Fluorophenyl)methyl]-4-hydroxy-1-methyl-N-[2-(4-morpholinyl)ethyl]-2-oxo-1,2-dihydro-1,5-naphthyridine-3-carboxamide]",< 10
2,"Cn1c(=O)c(C(=O)NCCCN2CCOCC2)c(O)c2ncc(Cc3ccc(F)cc3)cc21 [Example 97, 7-[(4-Fluorophenyl)methyl]-4-hydroxy-1-methyl-N-[3-(4-morpholinyl)propyl]-2-oxo-1,2-dihydro-1,5-naphthyridine-3-carboxamide]",< 10
3,"COCCNC(=O)c1c(O)c2ncc(Cc3ccc(F)cc3)cc2n(C)c1=O [Example 98, 7-[(4-Fluorophenyl)methyl]-4-hydroxy-1-methyl-N-[2-(methyloxy)ethyl]-2-oxo-1,2-dihydro-1,5-naphthyridine-3-carboxamide]",< 10
4,"Cn1c(=O)c(C(=O)NCCCN2CCCC2=O)c(O)c2ncc(Cc3ccc(F)cc3)cc21 [Example 99, 7-[(4-Fluorophenyl)methyl]-4-hydroxy-1-methyl-2-oxo-N-[3-(2-oxo-1-pyrrolidinyl)propyl]-1,2-dihydro-1,5-naphthyridine-3-carboxamide]",< 10
5,"Cn1c(=O)c(C(=O)NCCO)c(O)c2ncc(Cc3ccc(F)cc3)cc21 [Example 101, 7-[(4-Fluorophenyl)methyl]-4-hydroxy-N-(2-hydroxyethyl)-1-methyl-2-oxo-1,2-dihydro-1,5-naphthyridine-3-carboxamide]",< 10
6,"COCCNC(=O)c1c(O)c2ncc(Cc3ccc(F)cc3)cc2n(CC(=O)N2CCN(C)CC2)c1=O [Example 102, 7-[(4-Fluorophenyl)methyl]-4-hydroxy-N-[2-(methyloxy)ethyl]-1-[2-(4-methyl-1-piperazinyl)-2-oxoethyl]-2-oxo-1,2-dihydro-1,5-naphthyridine-3-carboxamide]",< 10
7,"COCCNC(=O)c1c(O)c2ncc(Cc3ccc(F)cc3)cc2n(CC(=O)N(C)CCOC)c1=O [Example 104, 7-[(4-Fluorophenyl)methyl]-4-hydroxy-1-(2-{methyl[2-(methyloxy)ethyl]amino}-2-oxoethyl)-N-[2-(methyloxy)ethyl]-2-oxo-1,2-dihydro-1,5-naphthyridine-3-carboxamide]",< 10
8,"CCOCCNC(=O)c1c(O)c2ncc(Cc3ccc(F)cc3)cc2n(CC(=O)N(C)CCOC)c1=O [Example 107, N-[2-(ethyloxy)ethyl]-7-[(4-fluorophenyl)methyl]-4-hydroxy-1-(2-{methyl[2-(methyloxy)ethyl]amino}-2-oxoethyl)-2-oxo-1,2-dihydro-1,5-naphthyridine-3-carboxamide]",< 10
9,"CCn1c(=O)c(C(=O)N[C@@H](C)CO)c(O)c2ncc(Cc3ccc(F)cc3)cc21 [Example 124, Sodium 1-ethyl-7-[(4-fluorophenyl)methyl]-3-({[(1S)-2-hydroxy-1-methylethyl]amino}carbonyl)-2-oxo-1,2-dihydro-1,5-naphthyridin-4-olate]",< 10
10,"COCCNC(=O)c1c(O)c2ncc(Cc3ccc(F)cc3)cc2n(CC(N)=O)c1=O [Example 162, 1-(2-Amino-2-oxoethyl)-7-[(4-fluorophenyl)methyl]-4-hydroxy-N-[2-(methyloxy)ethyl]-2-oxo-1,2-dihydro-1,5-naphthyridine-3-carboxamide]",< 10
11,"O=C(NCCO)c1c(O)c2ncc(Cc3ccc(F)cc3)cc2n(-c2ccc(F)cc2)c1=O [Example 200, 1-(4-Fluorophenyl)-7-[(4-fluorophenyl)methyl]-4-hydroxy-N-(2-hydroxyethyl)-2-oxo-1,2-dihydro-1,5-naphthyridine-3-carboxamide]",< 10
12,"CNC(=O)c1c(O)c2ncc(Cc3ccc(F)cc3)cc2n(CC(=O)N(C)C)c1=O [Example 237, 1-[2-(Dimethylamino)-2-oxoethyl]-7-(4-fluorobenzyl)-4-hydroxy-N-methyl-2-oxo-1,2-dihydro-1,5-naphthyridine-3-carboxamide]",< 10
13,"C[C@@H](O)CNC(=O)c1c(O)c2ncc(Cc3ccc(F)cc3)cc2n(CCN2CCCC2=O)c1=O [Example 429, 7-(4-Fluorobenzyl)-4-hydroxy-N-[(2R)-2-hydroxypropyl]-2-oxo-1-[2-(2-oxopyrrolidin-1-yl)ethyl]-1,2-dihydro-1,5-naphthyridine-3-carboxamide]",< 10
14,"CNC(=O)Cn1c(=O)c(C(=O)NCCOC)c(O)c2ncc(Cc3ccc(F)cc3)cc21 [Example 465, 7-[(4-Fluorophenyl)methyl]-4-hydroxy-1-[2-(methylamino)-2-oxoethyl]-N-[2-(methyloxy)ethyl]-2-oxo-1,2-dihydro-1,5-naphthyridine-3-carboxamide]",< 10
15,"COCCNC(=O)c1c(O)c2ncc(Cc3ccc(F)cc3)cc2n(Cc2nccn2C)c1=O [Example 467, 7-[(4-Fluorophenyl)methyl]-4-hydroxy-1-[(1-methyl-1H-imidazol-2-yl)methyl]-N-[2-(methyloxy)ethyl]-2-oxo-1,2-dihydro-1,5-naphthyridine-3-carboxamide]",< 10
16,"Cn1c(=O)c(C(=O)NC[C@@H](O)CO)c(O)c2ncc(Cc3ccc(F)cc3)cc21 [Example 516, N-[(2R)-2,3-Dihydroxypropyl]-7-[(4-fluorophenyl)methyl]-4-hydroxy-1-methyl-2-oxo-1,2-dihydro-1,5-naphthyridine-3-carboxamide]",< 10
17,"CCN(CC)CCNC(=O)c1c(O)c2ncc(Cc3ccccc3)cc2[nH]c1=O [N-[2-(Diethylamino)ethyl]-4-hydroxy-2-oxo-7-(phenylmethyl)-1,2-dihydro-1,5-naphthyridine-3-carboxamide, reference compound]",> 150

# Same assay, conditions: luciferase reporter following viral integration; read-out: IC50
row,SMILES,IC50 [nM]
1,"C[C@H](O)CNC(=O)c1c(O)c2ncc(Cc3ccc(F)cc3)cc2n(CCN2CCCC2=O)c1=O [Example 428, 7-(4-Fluorobenzyl)-4-hydroxy-N-[(2S)-2-hydroxypropyl]-2-oxo-1-[2-(2-oxopyrrolidin-1-yl)ethyl]-2-dihydro-1,5-naphthyridine-3-carboxamide]",< 10
